Data taken from patent publication US20100210635A1, “RENIN INHIBITORS” (Takeda Pharmaceutical Company Limited, priority 2006, published 2010).
pIC50: −log10 of the molar value.

The compounds below were run against T1, Recombinant human renin (Homo sapiens, UniProt P00797) (assay: In vitro enzymatic activity assay of Renin inhibitors (fluorescence, QXL520/HiLyteFluo488 peptide substrate)). Conditions: not given.
T1 construct: isolate the active form (residues 67-406); made in house; host or cells: FreeStyle 293-F cells (transient expression of pcDNA3.1(+)/hREN)
T1 sequence (P00797 67-406): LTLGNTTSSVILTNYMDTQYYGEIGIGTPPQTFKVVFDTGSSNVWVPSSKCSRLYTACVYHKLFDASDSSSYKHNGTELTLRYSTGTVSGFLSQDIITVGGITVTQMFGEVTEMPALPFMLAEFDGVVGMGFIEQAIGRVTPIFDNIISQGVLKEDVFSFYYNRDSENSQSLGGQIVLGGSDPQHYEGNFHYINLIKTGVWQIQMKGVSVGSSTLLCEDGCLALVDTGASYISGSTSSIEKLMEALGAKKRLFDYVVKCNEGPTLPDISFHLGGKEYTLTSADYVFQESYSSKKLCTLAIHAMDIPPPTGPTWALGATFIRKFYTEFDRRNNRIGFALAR
Format: biochemical
From the text: Test compounds in varying concentrations may be reacted with recombinant human renin in the presence of substrate, e.g., QXL520-γ-Abu-Ile-His-Pro-Phe-His-Leu-Val-Ile-His-Thr-Lys (HiLyteFluo488)-Arg-OH (Anaspec, San Jose, Calif.). The reaction can be followed kinetically using fluorescence (excitation λ=485 nm; emission λ=538 nm). Inhibition constants (IC50) may be calculated by non-linear curve fitting of the compound concentrations and fluorescence intensities to the standard IC50 equation.
Solutions of test compounds in varying concentrations (<2 mM final concentration) are prepared in dimethyl sulfoxide (DMSO) and then diluted into assay buffer comprising 50 mM Hepes, 1 mM EDTA, 1 mM DTT, 0.1 mg/ml BSA, 0.01% Brij35, pH 7.4. Alternatively, the assay can be performed with a high BSA concentration, wherein the buffer contains an additional 2% BSA.
Recombinant human renin (3 nM final concentration) is added to the dilutions and pre-incubated with the compounds for 10 minutes at 37° C. As described in Examples A-C above, human Renin can be obtained by expressing preprorenin (residue 1-406) in mammalian cells, treating the prorenin (residues 24-406) contained in the culture supernatant with trypsin, and isolate the active form (residues 67-406). After pre-incubation, the reaction is initiated with 1 μM of substrate QXL520-γ-Abu-Ile-His-Pro-Phe-His-Leu-Val-Ile-His-Thr-Lys (HiLyteFluo488)-Arg-OH (Anaspec, San Jose, Calif.). The final DMSO in the assay is 5%. The total volume of the reaction mixture is 20 μL, which can be placed on Greiner 384-well small volume plates.
Renin activity may be determined via fluorescence (excitation λ=485 nm; emission λ=538 nm), e.g., on a Molecular Devices SPECTROmax GEMINI XPS. The fluorescence intensity is determined upon the addition of substrate and determined again after incubation at 37° C. for one hour. The fluorescence intensity of a blank (no inhibition) using vehicle alone is also determined. Renin activity is linearly proportional to the change in fluorescence observed (final−initial).
The percent inhibition of Renin at a given compound concentration is defined as:
100%×[1−(Fcompound/Fblank)]
where Fcompound is the observed fluorescence at a given concentration of test compound and Fblank is the observed fluorescence in the presence of vehicle alone.
The pIC50 value (negative log of the molar concentration of the compound that produces 50% inhibition) of a test compound is calculated by non-linear least squares curve fitting of the equation: […]
to percent inhibition versus compound concentration. The 50% inhibitory concentration (IC50) of a test compound is calculated by raising 10 to the negative pIC50 (10^−pIC50).
For `CN1CCN(C(=O)Oc2ccc(C[C@@H]3CNCCN3C(=O)CCc3ccccc3Oc3ccccc3)cc2)CC1` [Example 72, (R)-4-((1-(3-(2-phenoxyphenyl)propanoyl)piperazin-2-yl)methyl)-phenyl 4-methylpiperazine-1-carboxylate], the pIC50 was 5.30 to 6.30.

Same assay, conditions: recombinant human renin 3 nM, 1 μM substrate, 37° C., pH 7.4; values given as ranges; read-out: IC50 of Exemplified Compounds Against Renin
In the case of `NC(=O)COc1ccc(C[C@@H]2CNCCN2C(=O)CCc2ccccc2Oc2ccccc2)cc1` [Example 70, (R)-2-(4-((1-(3-(2-phenoxyphenyl)propanoyl)piperazin-2-yl)methyl)phenoxy)acetamide], the pIC50 was over 6.30. `O=C(CCc1ccccc1Oc1ccccc1CO)N1CCNC[C@H]1Cc1ccccc1` [Example 87, (R)-1-(2-benzylpiperazin-1-yl)-3-(2-(2-(hydroxymethyl)phenoxy)phenyl)propan-1-one] gave a pIC50 of over 6.30. `O=C(CCc1ccccc1)N1CCNC[C@H]1Cc1ccccc1` [Example 1, (R)-1-(2-Benzylpiperazin-1-yl)-3-phenylpropan-1-one] was tested, and the pIC50 was 4.30 to 5.30. With `O=C(CCc1ccccc1Oc1ccccc1)N1CCNC[C@H]1Cc1ccc(O)cc1` [Example 68, (R)-1-(2-(4-hydroxybenzyl)piperazin-1-yl)-3-(2-phenoxyphenyl)-propan-1-one] the pIC50 was over 6.30. In the case of `CC(=O)NCc1c(C)cc(C)nc1Oc1ccccc1CCC(=O)N1CCNC[C@H]1Cc1ccccc1` [Example 39, (R)—N-((2-(2-(3-(2-benzylpiperazin-1-yl)-3-oxopropyl)phenoxy)-4,6-dimethylpyridin-3-yl)methyl)acetamide], the pIC50 was over 6.30. `COc1cc(CCC(=O)N2CCNC[C@H]2Cc2ccccc2)ccc1OC(C)=O` [Example 59, (R)-4-(3-(2-benzylpiperazin-1-yl)-3-oxopropyl)-2-methoxyphenyl acetate] gave a pIC50 of under 4.30. `COC(=O)COc1ccc(C[C@@H]2CNCCN2C(=O)CCc2ccccc2Cc2ccccc2CCNC(C)=O)cc1` [Example 92, (R)-Methyl 2-(4-((1-(3-(2-(2-(2-acetamidoethyl)benzyl)phenyl)propanoyl)piperazin-2-yl)methyl)phenoxy)acetate] showed a pIC50 of over 6.30. Compound `COC(=O)CCc1ccccc1Oc1ccccc1CCC(=O)N1CCNC[C@H]1Cc1ccccc1` [Example 67, (R)-methyl 3-(2-(2-(3-(2-benzylpiperazin-1-yl)-3-oxopropyl)phenoxy)phenyl)propanoate] has a pIC50 of over 6.30. `O=C(CCc1nc2ccccc2oc1=O)N1CCNC[C@H]1Cc1ccccc1` [Example 55, (R)-3-(3-(2-benzylpiperazin-1-yl)-3-oxopropyl)-2H-benzo[b][1,4]-oxazin-2-one] showed a pIC50 of 4.30 to 5.30. Compound `O=C(CCCc1ccccc1)N1CCNC[C@H]1Cc1ccccc1` [Example 19, (R)-1-(2-Benzylpiperazin-1-yl)-4-phenylbutan-1-one] has a pIC50 of 4.30 to 5.30. `O=C(CCc1ccccc1Oc1ccc(Cl)cc1)N1CCNC[C@H]1Cc1ccccc1` [Example 22, (R)-1-(2-Benzylpiperazin-1-yl)-3-(2-(4-chlorophenoxy)phenyl)propan-1-one] showed a pIC50 of over 6.30. With `O=C(CCc1ccccc1Oc1cccc(CO)c1)N1CCNC[C@H]1Cc1ccccc1` [Example 35, (R)-1-(2-Benzylpiperazin-1-yl)-3-(2-(3-(hydroxymethyl)phenoxy)phenyl)propan-1-one] the pIC50 was 5.30 to 6.30. With `CC(=O)NCc1cc(C)ccc1Oc1ccc(C)cc1CCC(=O)N1CCNC[C@H]1Cc1ccccc1` [Example 43, (R)—N-(2-(2-(3-(2-benzylpiperazin-1-yl)-3-oxopropyl)-4-methylphenoxy)-5-methylbenzyl)acetamide] the pIC50 was over 6.30. `N#CCCc1ccccc1Oc1ccccc1CCC(=O)N1CCNC[C@H]1Cc1ccccc1` [Example 66, (R)-3-(2-(2-(3-(2-benzylpiperazin-1-yl)-3-oxopropyl)phenoxy)phenyl)propanenitrile] gave a pIC50 of over 6.30. For `Cc1ccc(C(CC(=O)N2CCNC[C@H]2Cc2ccccc2)N2Cc3ccccc3C2=O)cc1` (stereo partly drawn) [Example 14, 2-(3-((R)-2-Benzylpiperazin-1-yl)-3-oxo-1-p-tolylpropyl)isoindolin-1-one], the pIC50 was 5.30 to 6.30. Compound `CC(=O)NCCc1ccccc1Cc1ccccc1CCC(=O)N1CCNC[C@H]1Cc1ccc(-c2nnn[nH]2)cc1` [Example 94, (R)—N-(2-(2-(3-(2-(4-(1H-tetrazol-5-yl)benzyl)piperazin-1-yl)-3-oxopropyl)benzyl)phenethyl)acetamide] has a pIC50 of over 6.30. `O=C(CCC(=O)N1CCNC[C@H]1Cc1ccccc1)N(c1ccccc1)c1ccccc1` [Example 60, (R)-4-(2-benzylpiperazin-1-yl)-4-oxo-N,N-diphenylbutanamide] showed a pIC50 of 5.30 to 6.30. Compound `O=C(CCN(c1ccccc1)c1ccccc1)N1CCNC[C@H]1Cc1ccccc1` [Example 58, (R)-1-(2-benzylpiperazin-1-yl)-3-(diphenylamino)propan-1-one] has a pIC50 of 4.30 to 5.30. `O=S(=O)(CCc1ccccc1)N1CCNC[C@H]1Cc1ccccc1` [Example 12, (R)-2-Benzyl-1-(phenethylsulfonyl)piperazine] showed a pIC50 of 4.30 to 5.30. For `O=C(Cc1ccccc1-c1ccc(F)cc1)N1CCNC[C@H]1Cc1ccccc1` [Example 3, (R)-1-(2-Benzylpiperazin-1-yl)-2-(4′-fluorobiphenyl-2-yl)ethanone], the pIC50 was 5.30 to 6.30. `CC(=O)NCCc1ccccc1Oc1ccccc1CCC(=O)N1CCNC[C@H]1Cc1ccc(OCC(N)=O)cc1` [Example 81, (R)-2-(4-((1-(3-(2-(2-(2-acetamidoethyl)phenoxy)phenyl)propanoyl)piperazin-2-yl)methyl)phenoxy)acetamide] showed a pIC50 of over 6.30. Work on `CC(=O)NCCc1ccccc1Cc1ccccc1CCC(=O)N1CCNC[C@H]1Cc1ccc(OCC(=O)O)cc1` [Example 90, (R)-2-(4-((1-(3-(2-(2-(2-acetamidoethyl)benzyl)phenyl)propanoyl)piperazin-2-yl)methyl)phenoxy)acetic acid] yielded a pIC50 of over 6.30. Work on `O=C(CSC(c1ccccc1)c1ccccc1)N1CCNC[C@H]1Cc1ccccc1` [Example 65, (R)-2-(benzhydrylthio)-1-(2-benzylpiperazin-1-yl)ethanone] yielded a pIC50 of 5.30 to 6.30. `O=C(CCc1ccccc1Cc1ccc(Cl)cc1)N1CCNC[C@H]1Cc1ccccc1` [Example 56, (R)-1-(2-benzylpiperazin-1-yl)-3-(2-(4-chlorobenzyl)phenyl)propan-1-one] was tested, and the pIC50 was over 6.30. `CCC(=O)NCCc1ccccc1Oc1ccccc1CCC(=O)N1CCNC[C@H]1Cc1ccccc1` [Example 78, (R)—N-(2-(2-(3-(2-benzylpiperazin-1-yl)-3-oxopropyl)phenoxy)phenethyl)propionamide] gave a pIC50 of over 6.30. For `CC(=O)NCc1ccc(C)nc1Oc1ccc(C)cc1CCC(=O)N1CCNC[C@H]1Cc1ccccc1` [Example 42, (R)—N-((2-(2-(3-(2-benzylpiperazin-1-yl)-3-oxopropyl)-4-methylphenoxy)-6-methylpyridin-3-yl)methyl)acetamide], the pIC50 was 5.30 to 6.30. For `CC1(C)CC(C(CC(=O)N2CCNC[C@H]2Cc2ccccc2)c2ccccc2)CCO1` (stereo partly drawn) [Example 61, 1-((R)-2-benzylpiperazin-1-yl)-3-(2,2-dimethyltetrahydro-2H-pyran-4-yl)-3-phenylpropan-1-one], the pIC50 was over 6.30. In the case of `CN(C)c1cccc(Oc2ccccc2CCC(=O)N2CCNC[C@H]2Cc2ccccc2)c1` [Example 31, (R)-1-(2-Benzylpiperazin-1-yl)-3-(2-(3-(dimethylamino)phenoxy)phenyl)propan-1-one], the pIC50 was over 6.30. `O=C(CCc1ccccc1Oc1ccccc1)N1CCNC[C@H]1Cc1ccccc1` [Example 7, (R)-1-(2-Benzylpiperazin-1-yl)-3-(2-phenoxyphenyl)propan-1-one] was tested, and the pIC50 was over 6.30. With `COCCCOc1ccccc1CCC(=O)N1CCNC[C@H]1Cc1ccccc1` [Example 75, (R)-1-(2-benzylpiperazin-1-yl)-3-(2-(3-methoxypropoxy)phenyl)-propan-1-one] the pIC50 was 5.30 to 6.30.
